Some test systems named below: T-47D breast; UACC-62 melanoma; BT-549 breast; PC-3 prostate; HOP-92 NSCLC; 786-0 renal; M14 melanoma; SK-MEL-2 melanoma; SNB-19 CNS; KM12 colon.
Holding throughout (assay): NCI tumour cell line growth inhibition, 48 h

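Five compound concentrations were applied to cells in 96-well plates for 48 hours; endpoints were derived by simple linear interpolation of the resulting dose-response curve. Here, GI50 denotes the concentration required for 50% inhibition of growth. Definition used: TGI = concentration required for complete inhibition of growth.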 Some results are limits rather than exact numbers.

Take `Clc1ccc(CO/N=C(\Cn2ccnc2)c2ccc(Cl)cc2Cl)c(Cl)c1`: the GI50 in the experiment on T-47D breast was 1.77 µM; with UACC-62 melanoma, 1.24 µM; in the experiment with BT-549 breast it was 1.97 µM; in the experiment with PC-3 prostate it was 1.27 µM; in the experiment with HOP-92 NSCLC, 1.15 µM; with 786-0 renal, 1.66 µM. Moreover, the GI50 with M14 melanoma is 1.85 µM; with SK-MEL-2 melanoma, 2.06 µM. For the same compound, the TGI with T-47D breast was determined as 3.36 µM; in the experiment with UACC-62 melanoma it was 2.67 µM; in the experiment with BT-549 breast it was 3.61 µM; in the experiment on PC-3 prostate it was 2.72 µM; with HOP-92 NSCLC, 2.53 µM; in the experiment on 786-0 renal, 3.14 µM. In addition, the TGI with M14 melanoma came to 3.71 µM; in the experiment with SK-MEL-2 melanoma it was 3.92 µM.
Regarding `Cc1cc(C)nc(SC2=C(Nc3cccc(Cl)c3)C(=O)N(Cc3ccccc3)C2=O)n1`, the GI50 in the experiment on T-47D breast is above 170 µM; in the experiment on UACC-62 melanoma, 34.9 µM; in the experiment on SNB-19 CNS it was above 170 µM; with BT-549 breast it was above 170 µM; in the experiment on PC-3 prostate it was above 170 µM; with KM12 colon, above 170 µM. In addition, the GI50 is above 170 µM in the experiment with HOP-92 NSCLC, above 170 µM in the experiment on 786-0 renal, 39.6 µM in the experiment with M14 melanoma and above 170 µM in the experiment with SK-MEL-2 melanoma. Besides, the TGI in the experiment with T-47D breast, in the experiment with UACC-62 melanoma, with SNB-19 CNS, in the experiment on BT-549 breast, in the experiment with PC-3 prostate and in the experiment on KM12 colon was above 170 µM in each case. Moreover, the TGI in the experiment on HOP-92 NSCLC, in the experiment on 786-0 renal, in the experiment with M14 melanoma and with SK-MEL-2 melanoma was above 170 µM each time.
Take `COc1ccc(-c2nc(-c3nc4cc(C)c(C)cc4[nH]3)cc3c2[nH]c2ccccc23)cc1`: the GI50 in the experiment with T-47D breast was 3.09 µM; with UACC-62 melanoma, 2.25 µM; with SNB-19 CNS it was 68.9 µM; with BT-549 breast, 2.96 µM; in the experiment with PC-3 prostate it was 2.77 µM; in the experiment with KM12 colon it was 3.5 µM. Moreover, the GI50 in the experiment with 786-0 renal is 2.6 µM; in the experiment with M14 melanoma, 4.16 µM; in the experiment on SK-MEL-2 melanoma, 3.28 µM. Also, the TGI with T-47D breast is 7.92 µM; in the experiment on UACC-62 melanoma, 6.7 µM; in the experiment on SNB-19 CNS it was above 100 µM; with BT-549 breast it was 8.21 µM; with PC-3 prostate it was 44 µM; with KM12 colon it was 24.9 µM. In addition, the TGI in the experiment with 786-0 renal came out at 5.93 µM; in the experiment on M14 melanoma, 24.8 µM; with SK-MEL-2 melanoma it was 8.25 µM.
Take `[N-]=[N+]=CC(=O)OCC(N)C(=O)O` (configuration not stated): the GI50 in the experiment on T-47D breast is 12.4 µM; in the experiment with UACC-62 melanoma, 2.06 µM; in the experiment on SNB-19 CNS, 2.28 µM; with BT-549 breast it was 16.7 µM; in the experiment with PC-3 prostate it was 2.42 µM; in the experiment on KM12 colon it was 0.58 µM. Besides, the GI50 in the experiment on HOP-92 NSCLC was above 100 µM; in the experiment with 786-0 renal, 0.856 µM; in the experiment with M14 melanoma, 0.809 µM; in the experiment on SK-MEL-2 melanoma, 15.9 µM. Moreover, the TGI in the experiment with T-47D breast, in the experiment on UACC-62 melanoma, with SNB-19 CNS, with BT-549 breast, in the experiment on PC-3 prostate and in the experiment on KM12 colon was above 100 µM each time. For the same compound, the TGI in the experiment on HOP-92 NSCLC, in the experiment with 786-0 renal, with M14 melanoma and with SK-MEL-2 melanoma was above 100 µM in each case.
For the compound `COC(=O)c1c2c(c(C)[n+]([O-])c1C)C(=O)C(NCc1ccc(F)c(F)c1)=CC2=O`, the GI50 is 1.75 µM in the experiment on T-47D breast; 1.53 µM in the experiment on UACC-62 melanoma; 2.14 µM with BT-549 breast; 1.91 µM in the experiment on PC-3 prostate; 2.16 µM with KM12 colon; 2.81 µM in the experiment with HOP-92 NSCLC. Also, the GI50 in the experiment on 786-0 renal was 3.17 µM; with M14 melanoma, 1.64 µM; in the experiment with SK-MEL-2 melanoma, 2.16 µM. The TGI came out at 4.33 µM in the experiment with T-47D breast; 3.35 µM with UACC-62 melanoma; 5.86 µM in the experiment with BT-549 breast; 7.75 µM in the experiment on PC-3 prostate; 8.15 µM in the experiment with KM12 colon; 6.43 µM in the experiment on HOP-92 NSCLC. Also, the TGI turned out to be 12.7 µM in the experiment with 786-0 renal, 3.6 µM in the experiment on M14 melanoma and 6.73 µM with SK-MEL-2 melanoma.
As for `Cc1cccc(N=C2c3cc([N+](=O)[O-])ccc3-c3c2cc([N+](=O)[O-])cc3[N+](=O)[O-])c1`, the GI50 was 1.99 µM in the experiment with T-47D breast; 5.03 µM in the experiment on UACC-62 melanoma; 14.3 µM in the experiment with SNB-19 CNS; 3.45 µM with BT-549 breast; 5.02 µM in the experiment on PC-3 prostate; 5.06 µM with KM12 colon. In addition, the GI50 with HOP-92 NSCLC was 2.47 µM; with 786-0 renal, 2.52 µM; in the experiment on M14 melanoma, 2.2 µM; with SK-MEL-2 melanoma, 7.39 µM. In addition, the TGI is 4.78 µM in the experiment on T-47D breast; 20.2 µM in the experiment with UACC-62 melanoma; 31.7 µM with SNB-19 CNS; 11.2 µM with BT-549 breast; 21.6 µM with PC-3 prostate; 20 µM in the experiment on KM12 colon. Further, the TGI was 7.17 µM in the experiment on HOP-92 NSCLC, 5.65 µM in the experiment on 786-0 renal, 4.57 µM with M14 melanoma and 32.1 µM with SK-MEL-2 melanoma.
With `O=C(O)c1cccc(CC(Br)C(=O)O)c1` (configuration not stated), the TGI in the experiment with T-47D breast, with UACC-62 melanoma, in the experiment with SNB-19 CNS, in the experiment on BT-549 breast, in the experiment on PC-3 prostate and in the experiment with KM12 colon was above 100 µM throughout. In addition, the TGI in the experiment on HOP-92 NSCLC, in the experiment on 786-0 renal, in the experiment on M14 melanoma and with SK-MEL-2 melanoma was above 100 µM in each case.
As for `O=C(O)CC1(C(=O)O)CCCCC1`, the TGI in the experiment with T-47D breast, with UACC-62 melanoma, in the experiment on SNB-19 CNS, in the experiment on BT-549 breast, in the experiment with PC-3 prostate and with KM12 colon was above 100 µM each time. For the same compound, the TGI in the experiment on HOP-92 NSCLC, in the experiment with 786-0 renal, in the experiment on M14 melanoma and in the experiment with SK-MEL-2 melanoma was above 100 µM each time.
On to `O=C(Cn1ccnc1[N+](=O)[O-])NCC(F)(F)C(F)(F)F`, for which the GI50 in the experiment on T-47D breast, in the experiment on UACC-62 melanoma, in the experiment with SNB-19 CNS, in the experiment on BT-549 breast, in the experiment with PC-3 prostate and in the experiment with KM12 colon was above 100 µM in each case. Besides, the GI50 in the experiment with HOP-92 NSCLC, in the experiment on 786-0 renal, in the experiment with M14 melanoma and in the experiment on SK-MEL-2 melanoma was above 100 µM in each case. Besides, the TGI in the experiment with T-47D breast, in the experiment with UACC-62 melanoma, in the experiment on SNB-19 CNS, in the experiment on BT-549 breast, in the experiment on PC-3 prostate and in the experiment on KM12 colon was above 100 µM throughout. The TGI in the experiment on HOP-92 NSCLC, in the experiment with 786-0 renal, in the experiment on M14 melanoma and in the experiment with SK-MEL-2 melanoma was above 100 µM throughout.
